Earlier results in patent US20240091141A1, “METHODS AND COMPOSITIONS FOR THE ABLATION OF NERVES” (TULAVI THERAPEUTICS, INC., priority 2021, published 2024).

Columns and labels:
a range of cell types = conditions: across a range of cell types
[1] = test system: sympathetic, sensory and motor neurons
sympathetic ganglia cell = conditions: in vitro; 4 ug/ml (10 uM)
[2] = meta-analysis covering over 12,000 patients

C[C@H](CCCC(C)(C)O)[C@H]1CC[C@H]2[C@@H]3CC=C4C[C@@H](O)CC[C@]4(C)[C@H]3CC[C@]12C [25-OH-cholesterol]
neurotoxicity (a range of cell types): demonstrated neurotoxicity

CCO [ethanol]
concentrations that result in neurolysis [1]: above 50%
destruction of neurons ([1]; One-hundred percent ethanol): completely destroy the cell bodies and axons

Cholesterol oxides
time to sympathetic ganglia cell death (sympathetic ganglia cell): ≤ 36 h

hyaluronic acid
effect of intraarticular injections [2]: either no effect or a “clinically irrelevant effect”
